Laboratory results published in ChEMBL document CHEMBL5252555, “Antimicrobial Polyketides from the Marine-Derived Fungus Spiromastix sp. SCSIO F190” (J Nat Prod, 2023).
Converted amounts (≈) assume the structure as drawn. The source made the active and inactive calls. The calls are words filed in the database; no cut-off is given here.

Tests used:
HepG2 = assay: Cytotoxicity against human HepG2 cells incubated for 48 hrs by CCK-8 assay; type: functional, cell-based
HeLa = assay: Cytotoxicity against human HeLa cells incubated for 48 hrs by CCK-8 assay; type: functional, cell-based
Staphylococcus aureus [1] = assay: Antibacterial activity against Staphylococcus aureus ATCC 29213 assessed as inhibition of bacterial growth incubated for 18 hrs by broth microdilution method; type: functional
Staphylococcus aureus [2] = assay: Antibacterial activity against Staphylococcus aureus 16339 assessed as inhibition of bacterial growth incubated for 18 hrs by broth microdilution method; type: functional
Staphylococcus aureus [3] = assay: Antibacterial activity against Staphylococcus aureus 1862 assessed as inhibition of bacterial growth incubated for 18 hrs by broth microdilution method; type: functional
Staphylococcus aureus [4] = assay: Antibacterial activity against Staphylococcus aureus 3090 assessed as inhibition of bacterial growth incubated for 18 hrs by broth microdilution method; type: functional
Staphylococcus aureus [5] = assay: Antibacterial activity against Staphylococcus aureus 991 assessed as inhibition of bacterial growth incubated for 18 hrs by broth microdilution method; type: functional
Staphylococcus aureus [6] = assay: Antibacterial activity against Staphylococcus aureus 669 assessed as inhibition of bacterial growth incubated for 18 hrs by broth microdilution method; type: functional
Staphylococcus aureus [7] = assay: Antibacterial activity against Staphylococcus aureus 745324 assessed as inhibition of bacterial growth incubated for 18 hrs by broth microdilution method; type: functional
Staphylococcus aureus [8] = assay: Antibacterial activity against Staphylococcus aureus 16162 assessed as inhibition of bacterial growth incubated for 18 hrs by broth microdilution method; type: functional
Enterococcus faecalis [9] = assay: Antibacterial activity against Enterococcus faecalis ATCC 29212 assessed as inhibition of bacterial growth incubated for 18 hrs by broth microdilution method; type: functional
Staphylococcus aureus [10] = assay: Antibacterial activity against Staphylococcus aureus GDE4P037P assessed as inhibition of bacterial growth incubated for 18 hrs by broth microdilution method; type: functional
Enterococcus faecalis [11] = assay: Antibacterial activity against Enterococcus faecalis 36950 assessed as inhibition of bacterial growth incubated for 18 hrs by broth microdilution method; type: functional
Micrococcus luteus = assay: Antibacterial activity against Micrococcus luteus ML01 assessed as inhibition of bacterial growth incubated for 18 hrs by broth microdilution method; type: functional
Staphylococcus simulans = assay: Antibacterial activity against Staphylococcus simulans AKA1 assessed as inhibition of bacterial growth incubated for 18 hrs by broth microdilution method; type: functional
Enterococcus faecium [12] = assay: Antibacterial activity against Enterococcus faecium 36235 assessed as inhibition of bacterial growth incubated for 18 hrs by broth microdilution method; type: functional
Bacillus subtilis = assay: Antibacterial activity against Bacillus subtilis BS01 assessed as inhibition of bacterial growth incubated for 18 hrs by broth microdilution method; type: functional
Enterococcus faecium [13] = assay: Antibacterial activity against Enterococcus faecium 35682 assessed as inhibition of bacterial growth incubated for 18 hrs by broth microdilution method; type: functional
Enterococcus gallinarum = assay: Antibacterial activity against Enterococcus gallinarum 5F52C assessed as inhibition of bacterial growth incubated for 18 hrs by broth microdilution method; type: functional
Enterococcus faecium [14] = assay: Antibacterial activity against Enterococcus faecium 36711 assessed as inhibition of bacterial growth incubated for 18 hrs by broth microdilution method; type: functional
Staphylococcus aureus [15] = assay: Antibacterial activity against Staphylococcus aureus 718306 assessed as inhibition of bacterial growth incubated for 18 hrs by broth microdilution method; type: functional
Staphylococcus aureus [16] = assay: Antibacterial activity against Staphylococcus aureus 6917 assessed as inhibition of bacterial growth incubated for 18 hrs by broth microdilution method; type: functional
Staphylococcus aureus [17] = assay: Antibacterial activity against methicillin-resistant Staphylococcus aureus assessed as inhibition of bacterial growth incubated for 18 hrs by broth microdilution method; type: functional
[18] = Cytotoxicity against human LX2 cells incubated for 48 hrs by CCK-8 assay; type: toxicity, cell-based; conditions: lx-2, 48 h
RBE = assay: Cytotoxicity against human RBE cells incubated for 48 hrs by CCK-8 assay; type: functional, cell-based
HCT-116 = assay: Cytotoxicity against human HCT-116 cells incubated for 48 hrs by CCK-8 assay; type: functional, cell-based
MCF7 = assay: Cytotoxicity against human MCF7 cells incubated for 48 hrs by CCK-8 assay; type: functional, cell-based
A549 = assay: Cytotoxicity against human A549 cells incubated for 48 hrs by CCK-8 assay; type: functional, cell-based
HUVEC = assay: Cytotoxicity against HUVEC cells incubated for 48 hrs by CCK-8 assay; type: toxicity, cell-based; conditions: human

Structure (SMILES)	MIC (Staphylococcus aureus [1])	MIC (Staphylococcus aureus [2])	MIC (Staphylococcus aureus [3])	MIC (Staphylococcus aureus [4])	MIC (Staphylococcus aureus [5])	MIC (Staphylococcus aureus [6])	MIC (Staphylococcus aureus [7])	MIC (Staphylococcus aureus [8])	MIC (Enterococcus faecalis [9])	MIC (Staphylococcus aureus [10])	MIC (Enterococcus faecalis [11])	MIC (Micrococcus luteus)	MIC (Staphylococcus simulans)	MIC (Enterococcus faecium [12])	MIC (Bacillus subtilis)	MIC (Enterococcus faecium [13])	MIC (Enterococcus gallinarum)	MIC (Enterococcus faecium [14])	MIC (Staphylococcus aureus [15])	MIC (Staphylococcus aureus [16])	other results
CCCc1cc(Oc2c(O)c(Cl)c(O)c(Cl)c2CCC)c(Cl)c(OC)c1Cl	2 µg/mL (≈ 4.4 µM)	2 µg/mL (≈ 4.4 µM)	2 µg/mL (≈ 4.4 µM)	2 µg/mL (≈ 4.4 µM)	2 µg/mL (≈ 4.4 µM)	2 µg/mL (≈ 4.4 µM)	2 µg/mL (≈ 4.4 µM)	2 µg/mL (≈ 4.4 µM)	2 µg/mL (≈ 4.4 µM)	2 µg/mL (≈ 4.4 µM)	0.5 µg/mL (≈ 1.1 µM)	1 µg/mL (≈ 2.2 µM)	2 µg/mL (≈ 4.4 µM)	1 µg/mL (≈ 2.2 µM)	1 µg/mL (≈ 2.2 µM)	2 µg/mL (≈ 4.4 µM)	4 µg/mL (≈ 8.81 µM)	2 µg/mL (≈ 4.4 µM)	1 µg/mL (≈ 2.2 µM)	2 µg/mL (≈ 4.4 µM)	Activity (HepG2): inactive; Activity (HeLa): inactive; MIC (Staphylococcus aureus [17]): 2 µg/mL (≈ 4.4 µM); Activity [18]: Non-Toxic; Activity (RBE): inactive; Activity (HCT-116): inactive; Activity (MCF7): inactive; Activity (A549): inactive; Activity (HUVEC): Non-Toxic
CCCc1c(Cl)c(O)c(Cl)c2c1Oc1c(Cl)c(O)c(Cl)c(CCC)c1C(=O)O2	2 µg/mL (≈ 4.29 µM)	2 µg/mL (≈ 4.29 µM)	2 µg/mL (≈ 4.29 µM)	4 µg/mL (≈ 8.58 µM)	2 µg/mL (≈ 4.29 µM)	2 µg/mL (≈ 4.29 µM)	4 µg/mL (≈ 8.58 µM)	4 µg/mL (≈ 8.58 µM)	2 µg/mL (≈ 4.29 µM)	2 µg/mL (≈ 4.29 µM)	1 µg/mL (≈ 2.15 µM)	2 µg/mL (≈ 4.29 µM)	2 µg/mL (≈ 4.29 µM)	8 µg/mL (≈ 17.2 µM)	0.25 µg/mL (≈ 0.536 µM)	4 µg/mL (≈ 8.58 µM)	2 µg/mL (≈ 4.29 µM)	4 µg/mL (≈ 8.58 µM)	4 µg/mL (≈ 8.58 µM)	8 µg/mL (≈ 17.2 µM)	MIC (Staphylococcus aureus [17]): 2 µg/mL (≈ 4.29 µM)
CCCc1c(Cl)c(OC)c(Cl)c(Oc2c(Cl)c(O)c(Cl)c3c2C(=O)O[C@H](C)C3)c1OC	4 µg/mL (≈ 7.84 µM)	4 µg/mL (≈ 7.84 µM)	4 µg/mL (≈ 7.84 µM)	4 µg/mL (≈ 7.84 µM)	4 µg/mL (≈ 7.84 µM)	4 µg/mL (≈ 7.84 µM)	4 µg/mL (≈ 7.84 µM)	4 µg/mL (≈ 7.84 µM)	8 µg/mL (≈ 15.7 µM)	8 µg/mL (≈ 15.7 µM)	4 µg/mL (≈ 7.84 µM)	2 µg/mL (≈ 3.92 µM)	4 µg/mL (≈ 7.84 µM)	16 µg/mL (≈ 31.4 µM)	2 µg/mL (≈ 3.92 µM)	32 µg/mL (≈ 62.7 µM)	4 µg/mL (≈ 7.84 µM)	8 µg/mL (≈ 15.7 µM)	8 µg/mL (≈ 15.7 µM)	8 µg/mL (≈ 15.7 µM)	Activity (HepG2): inactive; Activity (HeLa): inactive; MIC (Staphylococcus aureus [17]): 4 µg/mL (≈ 7.84 µM); Activity [18]: Non-Toxic; Activity (RBE): inactive; Activity (HCT-116): inactive; Activity (MCF7): inactive; Activity (A549): inactive; Activity (HUVEC): Non-Toxic
CCCc1c(O)c(Oc2c(Cl)c(O)c(Cl)c(CCC)c2C(=O)OC)c(Cl)c(OC)c1Cl	8 µg/mL (≈ 15.6 µM)	8 µg/mL (≈ 15.6 µM)	8 µg/mL (≈ 15.6 µM)	8 µg/mL (≈ 15.6 µM)	8 µg/mL (≈ 15.6 µM)	8 µg/mL (≈ 15.6 µM)	8 µg/mL (≈ 15.6 µM)	8 µg/mL (≈ 15.6 µM)	16 µg/mL (≈ 31.2 µM)	16 µg/mL (≈ 31.2 µM)	4 µg/mL (≈ 7.81 µM)	4 µg/mL (≈ 7.81 µM)	4 µg/mL (≈ 7.81 µM)	8 µg/mL (≈ 15.6 µM)	4 µg/mL (≈ 7.81 µM)	16 µg/mL (≈ 31.2 µM)	4 µg/mL (≈ 7.81 µM)	8 µg/mL (≈ 15.6 µM)	16 µg/mL (≈ 31.2 µM)	8 µg/mL (≈ 15.6 µM)	MIC (Staphylococcus aureus [17]): 8 µg/mL (≈ 15.6 µM)
CCCc1c(Cl)c(OC)c(Cl)c2c1Oc1c(Cl)c(O)c(Cl)c(CCC)c1C(=O)O2	4 µg/mL (≈ 8.33 µM)	1 µg/mL (≈ 2.08 µM)	1 µg/mL (≈ 2.08 µM)	1 µg/mL (≈ 2.08 µM)	1 µg/mL (≈ 2.08 µM)	1 µg/mL (≈ 2.08 µM)	2 µg/mL (≈ 4.17 µM)	1 µg/mL (≈ 2.08 µM)	1 µg/mL (≈ 2.08 µM)	2 µg/mL (≈ 4.17 µM)	0.25 µg/mL (≈ 0.521 µM)	0.5 µg/mL (≈ 1.04 µM)	0.25 µg/mL (≈ 0.521 µM)	2 µg/mL (≈ 4.17 µM)	0.125 µg/mL (≈ 0.26 µM)	2 µg/mL (≈ 4.17 µM)	1 µg/mL (≈ 2.08 µM)	2 µg/mL (≈ 4.17 µM)	2 µg/mL (≈ 4.17 µM)	2 µg/mL (≈ 4.17 µM)	MIC (Staphylococcus aureus [17]): 1 µg/mL (≈ 2.08 µM)
CN[C@H](CC(C)C)C(=O)N[C@H]1C(=O)N[C@@H](CC(N)=O)C(=O)N[C@H]2C(=O)N[C@H]3C(=O)N[C@H](C(=O)N[C@H](C(=O)O)c4cc(O)cc(O)c4-c4cc3ccc4O)[C@H](O)c3ccc(c(Cl)c3)Oc3cc2cc(c3O[C@@H]2O[C@H](CO)[C@@H](O)[C@H](O)[C@H]2O[C@H]2C[C@](C)(N)[C@H](O)[C@H](C)O2)Oc2ccc(cc2Cl)[C@H]1O [VANCOMYCIN]									2 µg/mL (≈ 1.38 µM)		0.5 µg/mL (≈ 0.345 µM)	0.13 µg/mL (≈ 0.0897 µM)	0.5 µg/mL (≈ 0.345 µM)	> 64 µg/mL	0.125 µg/mL (≈ 0.0863 µM)	> 64 µg/mL	4 µg/mL (≈ 2.76 µM)	> 64 µg/mL			
